# Test results reported in patent US11753408B2, “Compounds and method for blocking transmission of malarial parasite” (The United States of America, as represented by the …, priority 2016, dated 2023).
# Key:
# [1] = system: Stage III-V gametocytes (blood stage P. falciparum parasites); test: In vitro drug activity on gametocytes (AlamarBlue viability assay); type: cell-based, Plasmodium falciparum; conditions: for EC50: read-out: Gametocyte EC50
# Protocol: Cell culture. Asexual parasites of P. falciparum strain 3D7 were cultured as described previously [Trager W, et al., Journal of Parasitology 2005, 91: 484-486], Stage III-V gametocytes were selected and enriched with 3-day treatment with 50 mM N-acetylglucosamine (NAG) and the following Percoll density gradient centrifugation after gametocyte production [Tanaka T Q, et al., Molecular and Biochemical Parasitology, 2011, 111: 160-163], Gametocytes of HB3 and Dd2 strains were produced and then set up for assay in a similar process. HepG2 cells (ATCC, cat. no. 77400) were cultured in 175-cm^2 tissue culture flasks with 30 ml growth medium at 37° C. in a 5% CO2 humidified atmosphere. Growth medium was made with Dulbecco's Modified Eagle Medium with 10% fetal bovine serum (FBS). Growth medium was replaced every other day and cells were passed at 75% confluence.
# Compound screening experiments were performed as previously described [Tanaka T Q et al., Molecular and Biochemical Parasitology, 2013, 3188: 20-25], Briefly, 2.5 μl/well incomplete medium was dispensed into each well of 1,536-well plates using the Multidrop Combi followed by 23 nl compound transferring using the NX-TR Pintool (WAKO Scientific Solutions, San Diego, Calif.). 2.5 μl/well of gametocytes was dispensed with a seeding density of 20,000 cells/well using the Multidrop Combi. The assay plates were incubated for 72 h at 37° C. with 5% CO2. After addition of 5 μl/well of 2× AlamarBlue dye (Life Technologies, cat. no. DALI 100), the plates were incubated for 24 h at 37° C. with 5% CO2 and were read in a fluorescence detection mode (Ex=525 nm, Em=598 nm) on a ViewLux plate reader (PerkinElmer).
# Stage III-V gametocytes (blood stage P. falciparum parasites) were enriched with treatment with 50 mM N-acetylglucosamine (NAG) and Percoll density gradient centrifugation as described previously^1. Briefly, 2.5 μl/well incomplete medium was dispensed into each well of 1,536-well plates using the Multidrop Combi followed by 23 nl compound transfer using the NX-TR Pintool (WAKO Scientific Solutions, San Diego, Calif.). Then, 2.5 μl/well of gametocytes was dispensed with a seeding density of 20,000 cells/well using the Multidrop Combi. The assay plates were incubated for 72 h at 37° C. with 5% CO2. After addition of 5 μl/well of 2× AlamarBlue dye (Life Technologies, cat. no. DALI 100), the plates were incubated for 24 h at 37° C. with 5% CO2 and then were read in a fluorescence detection mode (Ex=525 nm, Em=598 nm) on a ViewLux plate reader (PerkinElmer).
# [2] = system: Asexual parasites of P. falciparum strain 3D7; test: In vitro drug activity on asexual parasites (SYBR Green assay); type: cell-based, Plasmodium falciparum
# Procedure, shortened: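 SYBR Green I fluorescence (ex 490, em 520 nm) was read after freeze-thaw lysis and 30 min staining at room temperature. Before that, drug-treated cultures (0.5% parasitemia, 2% hematocrit, DMSO ≤0.5%) were incubated 72 h, in duplicate.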
# mTOR = mTOR (Homo sapiens, UniProt P42345); test: mTOR activity (no method described); type: biochemical
# [3] = Microsomal stability (rat); type: in vitro ADME; conditions: rat microsomes
# Solubility at pH 7.4 = type: physicochemical
Structure (SMILES),EC50 [1] [nM],EC50 [2] [nM],mTOR (mTOR) [µM],Microsomal Stability (rat) T1/2 [3] [min],Sol @ pH 7.4 (Solubility at pH 7.4) [ug/mL],Gametocyte EC50 [1]
C[C@@H]1CN(C(=O)c2ccc(-n3c(=O)ccc4cnc5ccc(-c6ccc(Cl)cc6)cc5c43)cc2)C[C@H](C)O1 [Compound 101],305,107,1.78,4.5,<1.0,–
Cc1cc(C(=O)N2CCOCC2)ccc1-n1c(=O)ccc2cnc3ccc(-c4ccc(Cl)cc4)cc3c21 [Compound 110],139,40.8,9.459,2.2,1.1,–
NCc1ccc(-c2ccc3ncc4ccc(=O)n(-c5ccc(C(=O)N6CCOCC6)cc5)c4c3c2)cc1 [Compound 111],285,241,1.135,>30.0,19.8,–
CNC(=O)c1ccc(-n2c(=O)ccc3cnc4ccc(-c5ccc(Cl)cc5)cc4c32)c(C)c1 [Compound 112],179,76.8,3.581,5,5,–
Nc1cc(-c2ccc3ncc4ccc(=O)n(-c5ccc(C(=O)N6CCOCC6)cc5)c4c3c2)ccc1Cl [Compound 113],75.9,29.9,1.37,13.6,<1.0,–
O=C(c1ccc(-n2c(=O)ccc3cnc4ccc(-c5ccc(Cl)c(O)c5)cc4c32)cc1)N1CCOCC1 [Compound 114],13.6,6.95,0.4313,23.3,<1.0,–
O=C(O)c1cc(-c2ccc3ncc4ccc(=O)n(-c5ccc(C(=O)N6CCOCC6)cc5)c4c3c2)ccc1Cl [Compound 117],–,14400,4.734,>30.0,>80.0,Inactive
Nc1ccc(-c2ccc3ncc4ccc(=O)n(-c5ccc(C(=O)N6CCOCC6)cc5)c4c3c2)cc1 [Compound 118],29.6,6.6,0.2691,>30.0,<1.0,–
O=C(c1ccc(-n2c(=O)ccc3cnc4ccc(-c5ccc(O)cc5)cc4c32)cc1)N1CCOCC1 [Compound 119],32.4,7.55,0.07539,18.4,<1.0,–
O=C(c1ccc(-n2c(=O)ccc3cnc4ccc(-c5ccc(CO)cc5)cc4c32)cc1)N1CCOCC1 [Compound 120],35.9,7.5,0.2246,>30.0,<1.0,–
COc1cccc(-c2ccc3ncc4ccc(=O)n(-c5ccc(C(=O)N6CCOCC6)cc5)c4c3c2)c1 [Compound 123],442,145,0.857,7.3,–,–
O=C(c1ccc(-n2c(=O)ccc3cnc4ccc(-c5ccc(Cl)cc5)cc4c32)cc1)N1C2CCCC1CC2 [Compound 137],1000,188,1.518,1.6,<1.0,–
O=C(c1ccc(-n2c(=O)ccc3cnc4ccc(-c5ccc(Cl)cc5)cc4c32)cc1)N(C1CCCCC1)C1CC1 [Compound 142],50000,13800,46.17,1.4,<1.0,–
O=C(c1ccc(-n2c(=O)ccc3c[n+]([O-])c4ccc(-c5ccc(Cl)cc5)cc4c32)cc1)N1CCOCC1 [Compound 148],4580,601,18.17,>30.0,21.8,–
NC(=O)c1cc(-c2ccc3ncc4ccc(=O)n(-c5ccc(C(=O)N6CCOCC6)cc5)c4c3c2)ccc1Cl [Compound 149],840,409,6.235,>30.0,8.8,–
CCNC(=O)c1cc(-c2ccc3ncc4ccc(=O)n(-c5ccc(C(=O)N6CCOCC6)cc5)c4c3c2)ccc1Cl [Compound 150],6230,3820,7.873,2.4,3.9,–
O=C(c1ccc(-n2c(=O)ccc3cnc4ccc(-c5ccc(Cl)cc5)nc4c32)cc1)N1CCOCC1 [Compound 151],52.7,19.1,3.72,3.5,<1.0,–
COC(=O)c1cc(-c2ccc3ncc4ccc(=O)n(-c5ccc(C(=O)N6CCOCC6)cc5)c4c3c2)ccc1Cl [Compound 152],4040,2200,0.7962,3.3,<1.0,–
COc1cc(C(=O)NC2CC2)ccc1-n1c(=O)ccc2cnc3ccc(-c4ccc(CN(C)C)cc4)cc3c21 [Compound 190],248,–,10.68,>30,>77,–
Cc1ccc(C#N)cc1-n1c(=O)n(C)c2cnc3ccc(-c4ccc(F)cc4)cc3c21 [Compound 411],109,61.4,100,–,0,–
Cc1ccc(C#N)cc1-n1c(=O)n(C)c2cnc3ccc(-c4cccc(C#N)c4)cc3c21 [Compound 412],39.9,6.57,100,–,0,–
Cn1c(=O)n(-c2cccc(C#N)c2)c2c3cc(-c4ccc(CCN)cc4)ccc3ncc21 [Compound 413],54,29.4,2.73,–,0,–
